Test results from US8324282B2, “Alkylating agent combinations in the treatment of cancer” (Case Western Reserve University, priority 1999, dated 2012).
pIC50: −log10 of the molar value. Entries after “also recorded” stand apart in the source; their conditions may differ. Where two headings read alike, the source gives them in different places.

Experiments:
[1] = tested on: HCT116-Ch3 tumors; assay: HCT116-Ch3 xenograft tumor response in nude mice; type: in vivo; details: BCNU 30 mg/kg single i.p.
Method: Nude mice carrying tumor received a single injection (i.p.) of BCNU (30 mg/kg) or MX (2 mg/kg) combined with BCNU.
Tumor measurements were taken every 3 days.
At the tumor sizes indicated above, the mice received a single i.p. injection, also as described above.

[2] = tested on: HCT116 xenograft; assay: HCT116 xenograft tumor response in nude mice; type: in vivo
[3] = tested on: HCT116 cells; assay: Colony survival assay, HCT116; type: cell-based, human; details: for pIC50: Homo sapiens, HCT-116
From the text: (§1) Chemicals and Reagents. BG was generously provided by Dr. Robert Moschel (Frederick Cancer Research and Development Center, National Cancer Institute). Stock solution was made in dimethylsulfoxide. TMZ and BCNU were obtained from the Drug Synthesis and Chemistry Branch, Drug Therapeutic Program, National Cancer Center Institute. PD128763 was a gift from Park-Davis Pharmaceutical Division. 6-AN, 3-AB, MX and methylmethane sulfonate (MMS) were purchased from Sigma (ST. Louis, Mo.). Stock solutions of PD128763, 3-AB and 6-AN were prepared by dissolving in dimethylsulfoxide and added to cell culture at a final concentration of <1% DMSO, when cells were treated with these compounds. MX was dissolved in sterilized water (pH 7.0). All stock solutions were kept at −20° C. BCNU was prepared fresh in 0.5 ml of 100% ethanol, diluted in PBS, and used with in 10 min. Colony Survival Assay. SW480 cells were obtained from the ATCC. HCT116 cells were obtained from R. Boland, University of Michigan Medical Center. All cell lines were cultured in appropriate growth medium.
(§2) Cells (2000/dish) were plated, adhered for 18 hrs and treated with TMZ or
(§3) MMS plus or minus modifiers such as […], MX, 6-AN, 3-AB or PD128763, according to experimental protocol. After treatment, cells were washed and fresh medium was replaced. The cells were grown for a further 7 days prior to staining with methylene blue for determination of colonies containing more than 50 cells. Comparisons of drug induced cytotoxicity consisted of a calculation of the dose modification factor (DMF), defined as the ratio of the IC50 of either TMZ or MMS in the absence to that in the presence of indicted modifier(s), i.e., DMF═IC50 for TMZ alone/IC50 for TMZ plus modifier(s).

[4] = tested on: SW480 cells; assay: Colony survival assay, SW480; type: cell-based, human; details: for DMF (IC50 for TMZ alone/IC50 for TMZ plus modifier(s)): modifier(s) plus TMZ vs TMZ alone
From the text: as §1, §2, §3

[5] = tested on: MAWI cells; details: high levels of ATase; cited from earlier work
[6] = tested on: SW480 xenograft; assay: SW480 xenograft tumor response in nude mice; type: in vivo
[7] = tested on: murine bone marrow progenitor cells; assay: Colony forming assay, murine bone marrow progenitor cells; type: cell-based, mouse; details: mouse bone marrow cells
From the text: (§4) We observed less myelosuppression and less weight loss using TMZ and MX than using TMZ and BG. […] To test this hypothesis, we conducted in vitro experiments comparing the sensitivity to BG+TMZ and MX+TMZ in colon cancer cell lines with that of mouse bone marrow and human bone marrow cells. […] MX increased TMZ killing by 4 fold in SW480 cells. […] Topoisomerase (Topo) I and Topo II recognize spontaneous AP sites and form stable cleavable complexes. We hypothesized that AP sites formed during repair of TMZ-induced N7 mG and N3 mA adducts would also be recognized by Topo I and Topo II. However since Base Excision Repair [BER] is normally quite efficient, we further hypothesized that the impact of Topo I and Topo II would be most important after MX inhibition of BER; increased unrepaired MX adducted AP sites should increase Topo mediated strand breaks and apoptosis. Therefore, potentiation of TMZ cytotoxicity by MX would be dependent on Topo I and II. […] Lack of Topo I and II results in less cleavable complex formation, fewer double strand DNA breaks, and less apoptosis. We predict a better therapeutic index for the combination of MX/TMZ than observed with BG/TMZ because of the relative overexpression of topoisomerases I and II in malignant cells compared to marrow progenitors.

[8] = tested on: human bone marrow cells (CD34+ cells); assay: Colony forming assay, human bone marrow / CD34+ cells; type: cell-based; details: human bone marrow cells
From the text: as §4

[9] = tested on: HCT116 cells; assay: Growth inhibition assay (MTT), HCT116; type: cell-based, human; details: Homo sapiens, HCT-116; MMR deficient HCT116 cells; IUdR alone or with MX 6 mM
Method: In this experiment, a growth inhibition assay was carried out with H2O2, an oxidizing agent that mimics the effect of chemotherapeutic agents and radiation. Cells in the exponential phase were plated (1×10^4) in 24-well tissue culture plates. After attachment overnight, the cells were incubated with hydrogen peroxide (H2O2) (0-150 μM) or MX (6 mM) plus H2O2 for 1 hr. Five days after treatment, the media was discarded, and 100 μl of MTT (5 mg/ml in PBS) was added in 1 ml fresh media to each well for 4 hrs at 37° C. The MTT solution was then removed, and the formazan crystals were dissolved in 200 μl/well of DMSO for 20 min and changes in absorbance were determined at A540nm. Percentage growth inhibition was calculated by comparison of the A540nm reading from treated versus control cells.
The agents contemplated for combinations with MX in this example are agents which incorporate into DNA and are repaired by BER to form AP sites. Cell-growth inhibition was carried out with HCT116 cells to test MX-potentiated cytotoxicity of iododeoxyuridine (IUdR), which has been recognized as a radiosensitizing agent since the early 1960's.

[10] = tested on: SW480 cells; assay: Flow cytometry cell cycle distribution and apoptosis, SW480
Method: Median Effect Analysis (MEA). MEA was used to determine the dose-response interactions between TMZ and either MX or PD 128763. Drugs were combined at the ratio of the IC50 values for either TMZ and MX or TMZ and PD 128763 as determined by survival/concentration curves. The combination was compared to the cytotoxicity of each drug alone in every experiment. The combination index (CI) was determined from colony-forming assays at increasing levels of cell killing, using analysis of multiple drug interaction program (Biosoft, Cambridge, United Kingdom) developed based on method of Chou and Talalay (Chou and Talalay “Quantitative analysis of dose-effect relationship: the combined effects of multiple drugs on enzyme inhibitors” In: G. Weber (ed.) Advances in Enzyme Regulation, pp. 27-55, New York: Pergamon Press, 1983). CI values of less than or grater than 1 indicate synergy and antagonism, respectively, whereas a CI value of 1 indicates additivity of the drugs. Flow Cytometry for Cell Cycle Distribution Analysis. For cell cycle analysis, 10^6 cells were plated in 100-mm tissue culture dishes and exposed to MX (6 mM)/PD128763 (100 μM) or MX (6 mM)/PD128763 (100 μM) plus TMZ (300 μM) at 37° C. After 24 h-72 h of culture, cells were fixed in 80% ethanol and DNA was stained with 20 μg/ml propidium iodide. DNA fluorescence of PI-stained cells was measured with an Elite ESP flow cytometer/cell sorter (Coulter, Miami, Fla.). Cell cycle distribution was analyzed with Modfit 5.2 program (Verity software, Topsham, Mass.) at least 10,000 cells per data point. Western Blotting for PARP Cleavage Detection. Cell extracts were resolved by SDS-PAGE (12% polyacrylamide) in a Bio-Rad minigel apparatus at 150 V for 1 hr. […] The tumors were measured with calipers using the National Cancer Institute formula: V=L(mm)×I^2 (mm)/2 where L is the largest diameter and I is the smallest diameter of the tumor. […] The relative tumor volume (V/V0) was calculated by dividing the measured tumor volume (V) by the initial tumor volume (V0) at day 0. Tumor responses were quantified by tumor regrowth delay. Tumor growth delays were calculated according to: tumor growth delay=T2XC2X, where T2X and C2X represent the number of days treated and control tumors take to double in size from the day of treatment, respectively. […] Toxicity after treatment was evaluated by body weight measurements and peripheral WBC counting. Body weight was measured three times weekly from the first treatment until 2 weeks after the end of treatment. The weight loss was expressed as a percentage of the initial weight (initial weight−lowest weight/initial weight×100%). Peripheral WBCs were monitored 5 days after the end of treatment compared with WBCs of control mice.

[11] = tested on: HCT116 cells; assay: Flow cytometry cell cycle distribution and apoptosis, HCT116; type: cell-based, human
[12] = Toxicity evaluation in mice bearing SW480 xenograft; details: Table 1 doses
Method: (§5) Tumors in Nude Mice. Tumor cells (5×10^6) were injected into flanks of female athymic HSD nude mice, at 6-8 weeks of age. The tumors were measured with calipers using the National Cancer Institute formula: V=L(mm)×I^2 (mm)/2 where L is the largest diameter and I is the smallest diameter of the tumor. […] Toxicity Evaluation. Toxicity after treatment was evaluated by body weight measurements and peripheral WBC counting. Body weight was measured three times weekly from the first treatment until 2 weeks after the end of treatment. The weight loss was expressed as a percentage of the initial weight (initial weight−lowest weight/initial weight×100%).

[13] = Toxicity evaluation in mice bearing HCT116 xenograft; details: Table 2 doses
Method: as §5

[14] = tested on: DEtp cell line; assay: DEtp subline of DLD1; type: cell-based; details: DEtp subline
From the text: We also investigated whether TMZ and MX-induced MX-AP sites may also act as poisons of topoisomerase II α (topo II), producing dual lethal targets. To analyze the effect of MX-AP site on topo II-mediated DNA cleavage, a position-specific MX-AP site was generated on topo II cleavage sites using oligonuleotides for cleavage assay. […] We also found prolonged induction of topo II and remarkable increase in DNA double strand breaks in cells treated with TMZ and MX compared to TMZ alone. Similar results were also observed in cells treated with etoposide but not with N-methyl-maleimide (a catalytic inhibitor of topo II and also an antagonizer of etoposide). Moreover, the potentiation of TMZ by MX was decreased in DEtp cell line that was a subline derived from DLD1 and 5-fold more resistant to etoposide compared to the parental cell line.

O=NN(CCCl)C(=O)NCCCl [BCNU, 1,3-bis(2-chloroethyl)-1-nitrosourea]
effect on tumor growth [1]: very mild effect
effect on tumor growth ([2]; HCT116 tumors, BCNU 30 mg/kg single i.p.): very mild effect
pIC50 ([3]; HCT116, BCNU alone or after 6 mM MX 2 hr and/or BG, read-out: BCNU IC50): 4.35
pIC50 ([4]; Homo sapiens, SW480, 2 h, SW480, BCNU alone or after 6 mM MX 2 hr and/or BG, read-out: BCNU IC50): 4.54 to 4.57

Nc1nc(OCc2ccccc2)c2nc[nH]c2n1 [BG, O^6-benzylguanine]
enhancement of temozolomide toxicity [5]: 300 fold
enhancement of tumor growth delay by BG ([6]; 30 mg/kg BG one hour prior to 40 mg/kg TMZ): up to 3 fold
potentiation of TMZ cytotoxicity [7]: 10 fold
potentiation of TMZ cytotoxicity [8]: 10 fold
increase of BCNU cytotoxicity by BG ([3]; HCT116): 3-4 fold
additional effect of BG on potentiated cytotoxicity ([3]; HCT116, BG added to MX or PD128763 combination): no effect
increase of BCNU cytotoxicity by BG ([4]; SW480): 3-4 fold
DMF / potentiation of MMS cytotoxicity ([4]; SW480, MMS 0-3 mM plus 6 mM MX and/or BG vs MMS alone): 6 fold
DMF (IC50 for TMZ alone/IC50 for TMZ plus modifier(s)) ([4]; SW480): 14 fold
potentiation of TMZ cytotoxicity ([4]; SW480 tumor cells, Example 13): up to 14 fold

O=c1[nH]c(=O)n([C@H]2C[C@H](O)[C@@H](CO)O2)cc1I [IUdR, 5-iodo-2′-deoxyuridine]
pIC50 [9]: < 4.22

COS(C)(=O)=O [MMS, methylmethane sulfonate]
pIC50 ([3]; HCT116, read-out: IC50 of MMS): 2.85
pIC50 ([4]; Homo sapiens, SW480, SW480, read-out: IC50 of MMS): 3.09

COc1cccc2c1CCNC2=O [PD128763, 3,4-dihydro-5-methoxyisoquinolin-1(2H)-one]
effect of modifier alone on cell cycle distribution [10]: did not affect
effect on cell cycle distribution [11]: did not affect
DMF (IC50 for TMZ alone/IC50 for TMZ plus modifier) ([3]; HCT116, modifier plus TMZ vs TMZ alone): 5.0 fold
effect of modifier on BCNU cytotoxicity ([3]; HCT116, without BG): only minor enhancement; also recorded: no sensitization
DMF (IC50 for TMZ alone/IC50 for TMZ plus modifier(s)) ([4]; SW480): 3.3 fold
effect of modifier on BCNU cytotoxicity ([4]; SW480, without BG): no enhancement; also recorded: no sensitization

Cn1nnc2c(C(N)=O)ncn2c1=O [TMZ, temozolomide]
Tumor growth delays ([2]; HCT116 xenograft, Table 2 doses: TMZ 120, MX 2, MX+TMZ 2/120 mg/kg, daily for 5 days): 2.5 ± 0.8 days
Toxicity (max. BW loss) [12]: 11%
Tumor growth delays ([6]; SW480 xenograft, Table 1 doses: TMZ 120, MX 2, BG+TMZ 30/120, MX+TMZ 2/120 mg/kg, daily for 5 days): 9.3 ± 1.2 days
tumor growth delay ([6]; SW480 xenograft, text doses: TMZ 120 mg/kg, 0.2 mg/kg MX plus 120 mg/kg TMZ): approximately 12 days
cells accumulated in S and G2 ([10]; TMZ 300 μM, 24 hr): 75-90%
apoptotic cells ([10]; TMZ 300 μM, MX 6 mM, PD128763 100 μM, day 3): 8%
Toxicity (max. BW loss) [13]: 20.8%
pIC50 ([3]; HCT116 (MH1 defective cells), even after inhibition of AGT by BG, read-out: IC50 of TMZ): 3.02
pIC50 ([4]; Homo sapiens, SW480, SW480, TMZ 0-1500 μM 2 h, alone or with 6 mM MX and/or BG pretreatment, read-out: IC50 of TMZ): 3.40
pIC50 ([4]; SW480, TMZ 0-1500 μM 2 h, alone or with 6 mM MX and/or BG pretreatment, read-out: IC50 of TMZ): 3.43

COc1cc([C@@H]2c3cc4c(cc3[C@@H](O[C@@H]3O[C@@H]5CO[C@@H](C)O[C@H]5[C@H](O)[C@H]3O)[C@H]3COC(=O)[C@H]23)OCO4)cc(OC)c1O [etoposide]
resistance compared to parental DLD1 cell line [14]: 5 fold
